Results on 1 compound are retold here after publication PMC4741889, “Ligand-based chemoinformatic discovery of a novel small molecule inhibitor targeting CDC25 dual specificity phosphatases and displaying in vitro efficacy against melanoma cells” (Oncotarget, 2015).

Each structure is given as a SMILES string.

In one experiment the test system is p53 protein levels. Kind of experiment: Western blotting of p53 protein levels in SAN cells. In kind it is cell-based, human. The settings on record: 100 μM, 16 h (not shown). (In general: Immunoblotting shows a protein as a band on a membrane.)
In another experiment the test system is CDC25A protein levels. As to the kind of experiment: Western blotting of CDC25A protein levels in A2058 cells. The settings on record: A2058, 100 μM, 2-16 h. The experiment is classed as cell-based, human. The procedure: To better investigate the effect of this inhibitor at the molecular level, we evaluated if the treatment of A2058 cells with 7 affected also the protein levels of the three CDC25 forms. […] On the other hand, the protein levels of CDC25B were unaffected by treatment of A2058 cells with 7 up to 16 h.
A2058 cells were seeded into 6-well-plates (3 × 10^5 cells/plate) for 24 h at 37°C and then treated at different times with 100 μM compound 7 or 0.5% DMSO. After treatment, cells were harvested, washed with PBS and then lysed in ice-cold modified radio immunoprecipitation assay (RIPA) buffer (50 mM Tris-HCl, pH 7.4, 150 mM NaCl, 1% Nonidet P-40, 0.25% sodium deoxycholate, 1 mM Na3VO4 and 1 mM NaF), supplemented with protease inhibitors and incubated for 30 min on ice. The supernatant obtained after centrifugation at 12,000 rpm for 30 min at 4°C constituted the total protein extract. The protein concentration was determined by the method of Bradford, using bovine serum albumin (BSA) as standard. Equal amounts of total protein extracts were used for Western blot analysis. […] Membranes were then analysed by an enhanced chemiluminescence reaction, using Super Signal West Pico kit (Pierce) according to manufacturer's instruction; signals were visualized by autoradiography.

`O=C(O)C1CCCCC1c1c2ccc(=O)cc-2oc2cc(O)ccc12` (centres unmarked) [Compound 7, 2-(6-hydroxy-3-oxo-3H-xanthen-9-yl)cyclohexanecarboxylic acid]: the p53 protein level result with p53 protein levels is listed as “higher level of this protein”. Moreover, in the experiment on CDC25A protein levels, the CDC25A protein levels entry was “early reduction of the CDC25A protein levels up to 4 h”.
